Measured values from ChEMBL document CHEMBL1122705, “Synthesis and pharmacological evaluation of an 8 beta-bis(2-chloroethyl)amino opiate as a nonequilibrium opioid receptor probe” (J Med Chem, 1984).
pIC50: −log10 of the molar value.

Tests used:
Assay type in all cases: functional
Cavia porcellus [1] = species: Cavia porcellus; experiment: Agonist activity in guinea pig ileum at a concentration of 1 uM expressed as percent maximal response
Mus musculus [2] = species: Mus musculus; experiment: Agonist activity in mouse vas deferens at a concentration of 200 nM expressed as percent maximal response
Mus musculus [3] = species: Mus musculus; experiment: Inhibitory activity in mouse vas deferens, n=4
Cavia porcellus [4] = species: Cavia porcellus; experiment: Inhibitory activity in guinea pig longitudinal muscle preparation, n=2; details: Muscle tissue

Structure (SMILES)	Activity (Cavia porcellus [1]) [%]	Activity (Mus musculus [2]) [%]	pIC50 (Mus musculus [3])	pIC50 (Cavia porcellus [4])
CN1CCC23c4c5ccc(O)c4O[C@H]2C=C[C@H](N(CCCl)CCCl)[C@H]3C1C5 (some centres undefined)	15	25		
CN1CCC23c4c5ccc(O)c4O[C@H]2C=C[C@H](N=[N+]=[N-])[C@H]3C1C5 (some centres undefined)			7.34	6.47
